B1: HB-EGF: growth factor used to stimulate PECs (protein, UniProt Q99075 63-148, looked up)
Heparin-binding EGF-like …: DLQEADLDLLRVTLSSKPQALATPNKEEHGKRKKKGKGLGKKRDPCLRKYKDFCIHGECKYVKELRAPSCICHPGYHGERCHGLSL

Columns and labels:
Assay type in all cases: cell-based
PEC [1] = assay: Proliferation assay (Ki67 staining, flow cytometry); details: PDGF-BB stimulation
Description: To assess cell proliferation, we used the nuclear antigen Ki67 staining. After overnight starvation in ECBM+1% FBS, cells were treated 24 hours with PDGF-BB (10 ng/mL) or HBEGF (20 ng/mL) or corresponding controls. Cells were then trypsinized and washed in cold PBS. Supernatants were kept and included in analysis. After centrifugation, cells were permeabilized with 1 mL of ice-cold ethanol for 2 h at −20° C. Following two washes with FACS buffer (HBSS, 2% FBS and 10 mM HEPES), cells were stained for 30 min at room temperature in the dark with phycoerythrin (PE)-conjugated anti-human Ki67 mAb (clone B56) (BD Pharmingen) and washed. Samples were analyzed on a BD LSRII flow cytometer (BD Bioscience). An isotype control staining with PE mouse IgG1 was performed. Data were analyzed using FlowJo software (FlowJo, LLC).

PDGFRβ = assay: Western blot of PDGFRβ phosphorylation in PEC; details: PEC stimulated with PDGF-BB
Description: PEC lysates were prepared with RIPA extraction buffer containing phosphatase inhibitors and protease inhibitors (Roche). Equal amounts of proteins were loaded onto sodium dodecyl sulfate-polyacrylamide electrophoresis gels for separation and transferred onto poly(vinylidene difluoride) membranes. The membranes were blocked with milk and probed with different antibodies: rat anti-CD9 (BD Pharminogen, 553758, 1:1000), rabbit anti-phospho-PDGF receptor-β Y1009 (Cell Signaling Technology, 4549; 1:1000), rabbit anti-PDGFRB (Cell Signaling, 3169; 1:1000), rabbit anti-integrin […] (Millipore, 04-1109, 1:1000), rabbit anti-CASP3 (Cell Signaling Technology, 9662; 1:1000), rabbit anti-phospho EGFR Y1068 (Cell Signaling Technology, 2234; 1:1000), rabbit anti EGFR (Cell Signaling Technology, 2232; 1:1000), rabbit anti-phospho-FAK Y397 (Cell Signaling 3283, 1:1000), rabbit anti-FAK (Millipore, 06-543,1:1000). Membranes were then probed with horseradish peroxidase-conjugated secondary antibodies (Cell Signaling Technology, 7074 and 7076; 1:2000; Jackson Immunoresearch, 706-036-148; 1:1000) and bands were visualized by enhanced chemiluminescence (Clarity Western ECL substrate; Bio-Rad, 170-5061). A LAS-4000 imaging system (Fuji, LAS4000, Burlington, N.J., USA) was used to reveal bands and densitometric analysis was used for quantification.

PEC [2] = assay: Cell migration in IBIDI chambers (scratch assay); details: scratch assays, growth factor stimulation
Description: Unoriented migration assay was performed using IBIDI chambers (Culture-Insert 2 Well in μ-Dish 35 mm, high ibiTreat, n° 81176). After confluence was obtained, PECs were grown in ECBM without supplements with FBS 1% overnight. The insert was then removed creating a gap of 500 μm between cells. A first round of photographs was taken (HO), shortly after cells were stimulated with either ECBM without supplements with FBS 1% (control), or with HB-EGF 10 ng/mL, or with PDGF-BB 10 ng/mL. Photographs were taken every 30 min for 12 h. Areas of migration were measured by automatic quantification on NIS-Elements AR software.

| Molecule | PEC proliferation (number of KI67+ cells) (PEC [1]) | PDGFRβ phosphorylation (PDGFRβ) | PEC migration (PEC [2]) |
| --- | --- | --- | --- |
| PDGF-BB: growth factor used to stimulate PECs | induced PEC proliferation | induced a rapid and transient PDGFRβ phosphorylation | induced PEC migration |
| B1 | – | – | induced PEC migration |
